The values that follow come from ChEMBL document CHEMBL3046944, “NEW QUASSINOIDS FROM AILANTHUS EXCELSA” (Med Chem Res, 2004).

In assay [1] the test system is Plasmodium falciparum. As to the kind of experiment: Antimalarial activity against Plasmodium falciparum assessed as growth inhibition at 25 nM. Type of assay: functional, organism-based.
Assay [2] has as its system Plasmodium falciparum. As to the kind of experiment: Antimalarial activity against Plasmodium falciparum assessed as growth inhibition at 0.2 uM. Type of assay: functional, organism-based.

Calls of active or inactive are those of the source. No cut-off for these calls is given here.

With `CCN(CC)CCCC(C)Nc1ccnc2cc(Cl)ccc12` (configuration not stated), the “growth inhibition (GI)” value in the assay on Plasmodium falciparum [1] is “Active”.
For `CCC(C)C(=O)O[C@H]1C(=O)O[C@@H]2C[C@H]3C(C)=C[C@H](O)[C@@H](O)[C@]3(C)[C@H]3[C@@]4(O)OC[C@]32[C@@H]1[C@@H](C)[C@H]4O` (some centres not stated), the “growth inhibition (GI)” value with Plasmodium falciparum [2] is “Active”.
